Structures can show the parent of a compound that is named as a salt.
Experiments:
[1] = Half-life in Human Liver Microsomes (HLM); details: pH 7.4; for half-life at 1 μM: human, human liver microsomes (HL101)
Experimental: Test compounds (1 μM) were incubated with 3.3 mM MgCl2 and 0.78 mg/mL HLM (HL101) in 100 mM potassium phosphate buffer (pH 7.4) at 37° C. on the 96-deep well plate. The reaction mixture was split into two groups, a non-P450 and a P450 group. NADPH was only added to the reaction mixture of the P450 group. An aliquot of samples of P450 group was collected at 0, 10, 30, and 60 min time point, where 0 min time point indicated the time when NADPH was added into the reaction mixture of P450 group. An aliquot of samples of non-P450 group was collected at −10 and 65 min time point. Collected aliquots were extracted with acetonitrile solution containing an internal standard. The precipitated protein was spun down in centrifuge (2000 rpm, 15 min). The compound concentration in supernatant was measured by LC/MS/MS system.
The half-life value was obtained by plotting the natural logarithm of the peak area ratio of compounds/internal standard versus time. The slope of the line of best fit through the points yields the rate of metabolism (k).

human VR1 receptors = biological target: T1, human VR1 receptors (Homo sapiens, UniProt Q8NER1); assay: Human VR1 antagonist assay (Ca2+ imaging); type: cell-based; details: cells expressing human VR1, fura-2 Ca2+ imaging, FDSS 6000; capsaicin (300 nM) or acid (pH5.8) stimulation, table does not say which
T1 construct: host or cells: cells highly expressing human VR1; cell type not specified
T1 sequence (Q8NER1 whole entry): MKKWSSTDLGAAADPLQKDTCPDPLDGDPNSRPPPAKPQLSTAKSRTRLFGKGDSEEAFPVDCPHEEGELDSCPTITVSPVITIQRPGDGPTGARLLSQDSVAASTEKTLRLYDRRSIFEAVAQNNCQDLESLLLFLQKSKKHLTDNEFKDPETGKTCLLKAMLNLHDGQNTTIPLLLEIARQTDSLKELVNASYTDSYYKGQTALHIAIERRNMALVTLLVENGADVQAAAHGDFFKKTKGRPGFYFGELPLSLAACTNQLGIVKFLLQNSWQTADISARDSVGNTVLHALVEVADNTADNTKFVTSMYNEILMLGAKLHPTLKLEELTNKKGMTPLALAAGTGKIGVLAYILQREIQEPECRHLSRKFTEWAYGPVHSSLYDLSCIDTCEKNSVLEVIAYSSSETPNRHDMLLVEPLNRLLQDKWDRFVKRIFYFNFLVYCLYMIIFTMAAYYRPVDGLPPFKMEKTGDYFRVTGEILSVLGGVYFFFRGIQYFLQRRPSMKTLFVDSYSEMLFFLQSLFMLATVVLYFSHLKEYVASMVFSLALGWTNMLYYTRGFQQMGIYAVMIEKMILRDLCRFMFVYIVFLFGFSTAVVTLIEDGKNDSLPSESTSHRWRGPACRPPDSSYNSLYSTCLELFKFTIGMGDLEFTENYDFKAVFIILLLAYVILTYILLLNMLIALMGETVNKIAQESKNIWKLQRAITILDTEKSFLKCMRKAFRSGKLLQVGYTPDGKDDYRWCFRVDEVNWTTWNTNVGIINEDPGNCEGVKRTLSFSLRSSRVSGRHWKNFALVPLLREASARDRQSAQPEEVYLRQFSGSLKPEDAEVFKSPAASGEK
Source text: Human VR1 Antagonist Assay
VR1 antagonistic activity can be determined by the Ca^2+ imaging assay using human VR1 highly expressing cells. The cells that highly express human VR1 receptors are obtainable from several different conventional methods. The one standard method is cloning from human Dorsal Root Ganglion (DRG) or kidney according to the methods such as described in the journal article; Nature, 389, pp 816-824, 1997. Alternatively VR1 receptors highly expressing human keratinocytes are also known and published in the journal article (Biochemical and Biophysical Research Communications, 291, pp 124-129, 2002). […] Further more, the method to up regulate human VR1 gene, which is usually a silent gene or don't produce detectable level of VR1 receptors, is also available to obtain propriety cells. Such genetic modification method was described in detail; Nat. Biotechnol., 19, pp 440-445, 2001.
The cells that express human VR1 receptors were maintained in culture flask at 37° C. in an environment containing 5% CO2 until use in the assay. The intracellular Ca^2+ imaging assay to determine VR1 antagonistic activities were done by following procedures.
The culture medium was removed from the flask and fura-2/AM fluorescent calcium indicator was added to the flask at a concentration of 5 μM in the medium. The flask was placed in CO2 incubator and incubated for 1 hour. Then the cells expressing the human VR1 receptors were detached from the flask follow by washing with phosphate buffer saline, PBS(−) and re-suspended in assay buffer. The 80 μl of aliquot of cell suspension (3.75×10^5 cells/ml) was added to the assay plate and the cells were spun down by centrifuge (950 rpm, 20° C., 3 minutes).
Capsaicin Stimulation Assay:
The capsaicin-induced changes in the intracellular calcium concentration were monitored using FDSS 6000 (Hamamatsu Photonics, Japan), a fluorometric imaging system. The cell suspension in Krebs-Ringer HEPES (KRH) buffer (115 mM NaCl, 5.4 mM KCl, 1 mM MgSO4, 1.8 mM CaCl2, 11 mM D-Glucose, 25 mM HEPES, 0.96 mM Na2HPO4, pH 7.3) were pre-incubated with varying concentrations of the test compounds or KRH buffer (buffer control) for 15 minutes at room temperature under the dark condition. Then capsaicin solution, which gives 300 nM in assay mixture, was automatically added to the assay plate by the FDSS 6000.
The Acid-induced changes in the intracellular calcium concentration were monitored using FDSS 6000 (Hamamatsu Photonics, Japan), a fluorometric imaging system. The cell suspension in resting buffer (HBSS supplemented with 10 mM HEPES, pH 7.4) were pre-incubated with varying concentrations of the test compounds or resting buffer (buffer control) for 15 minutes at room temperature under the dark condition. The cells were automatically added the stimulating solution (HBSS supplemented with MES, final assay buffer pH5.8) by the FDSS 6000.
Determination of Antagonist Activity
The monitoring of the changes in the fluorescence signals (λex=340 nm/380 nm, λem=510-520 nm) was initiated at 1 minute prior to the addition of capsaicin solution or acidic buffer and continued for 5 minute.

Structure (SMILES)	half-life at 1 μM [1] [min]	IC50 (human VR1 receptors) [µM]	T1/2 ([1]; 1 μM compound, 0.78 mg/mL HLM, 37° C., NADPH) [min]
CCc1cc([C@@H](C)NC(=O)C2CC2(C)c2ccc(OC(F)(F)F)cc2)ccc1NS(C)(=O)=O (mixture of isomers) [Example 29, N-((1R)-1-{3-Ethyl-4-[(methylsulfonyl)amino]phenyl}ethyl)-2-methyl-2-{4-[(trifluoromethyl)oxy]phenyl}cyclopropanecarboxamide]	19	0.0179	
Cc1cc([C@@H](C)NC(=O)C2CC2(C)c2ccc(OC(F)(F)F)cc2)ccc1NS(C)(=O)=O (single isomer, unassigned) [Example 28]	61	0.0123	
Cc1cc([C@@H](C)NC(=O)C2CC2c2cc(F)c(C(C)(C)C(F)(F)F)c(F)c2)ccc1NS(C)(=O)=O (single isomer, unassigned) [Example 30]	32	0.138	
Cc1nc([C@@H](C)NC(=O)C2CC2c2ccc(C(C)(C)C)cc2)ccc1NS(C)(=O)=O (single isomer, unassigned) [Example 55]	42	0.297	
Cc1nc([C@@H](C)NC(=O)C2CC2c2ccc(C(F)(F)F)cc2)ccc1NS(C)(=O)=O (single isomer, unassigned) [Example 56]	> 120	1.25	
Cc1cc([C@@H](C)NC(=O)C2CC2(C)c2ccc(C(F)(F)F)nc2)ccc1NS(C)(=O)=O (single isomer, unassigned) [Example 57]	91	0.0305	
Cc1cc([C@@H](C)NC(=O)C2CC2(C)c2cc(F)c(C(C)(C)C(F)(F)F)c(F)c2)ccc1NS(C)(=O)=O (single isomer, unassigned) [Example 71]	15.8	0.00048	
CCc1cc([C@@H](C)NC(=O)C2CC2(C)c2cc(F)c(C(C)(C)C(F)(F)F)c(F)c2)ccc1NS(C)(=O)=O (single isomer, unassigned) [Example 72]	52.6	0.0085	
CCc1cc([C@@H](C)NC(=O)C2CC2(C)c2ccc(OC(F)(F)F)cc2)ccc1NS(C)(=O)=O (single isomer, unassigned) [Example 75]	10	0.0118	
Oc1cc2c(cc1O)CN(C(=S)NCCc1ccc(Cl)cc1)CCC2 [Capsazepine, reference compound]		0.237 to 0.455	
Cc1cc([C@@H](C)NC(=O)C2CC2(C)c2ccc(C(C)(C)O)cc2)ccc1NS(C)(=O)=O (stereo partly drawn) [Example 3, 2-[4-(1-Hydroxy-1-methylethyl)phenyl]-2-methyl-N-((1R)-1-{3-methyl-4-[(methylsulfonyl)amino]phenyl}ethyl)cyclopropanecarboxamide]		0.885	
Cc1cc([C@@H](C)NC(=O)C2CC2(C)c2ccc(C(C)(C)C)nc2)ccc1NS(C)(=O)=O (stereo partly drawn) [Example 11, 2-(6-tert-Butylpyridin-3-yl)-2-methyl-N-((1R)-1-{3-methyl-4-[(methylsulfonyl)amino]phenyl}ethyl)cyclopropanecarboxamide monohydrochloride]			22
CCc1nc([C@@H](C)NC(=O)C2C[C@]2(C)c2ccc(C(C)(C)C(F)(F)F)cc2)ccc1NS(C)(=O)=O (stereo partly drawn) [Example 35, N-((1R)-1-{6-Ethyl-5-[(methylsulfonyl)amino]pyridin-2-yl}ethyl)-2-methyl-2-[4-(2,2,2-trifluoro-1,1-dimethylethyl)phenyl]cyclopropanecarboxamide]	25		
CCc1nc([C@@H](C)NC(=O)[C@H]2C[C@]2(C)c2ccc(C(C)(C)C(F)(F)F)cc2)ccc1NS(C)(=O)=O [Example 35, N-((1R)-1-{6-Ethyl-5-[(methylsulfonyl)amino]pyridin-2-yl}ethyl)-2-methyl-2-[4-(2,2,2-trifluoro-1,1-dimethylethyl)phenyl]cyclopropanecarboxamide]		0.156	
C[C@@H](NC(=O)C1C[C@@H]1c1ccc(C(C)(C)C)c(F)c1)c1ccc(NS(C)(=O)=O)c(CO)c1 (stereo partly drawn) [Example 36, 2-[4-tert-Butyl-3-fluorophenyl]-N-((1R)-1-{3-(hydroxymethyl)-4-[(methylsulfonyl)amino]phenyl}ethyl)cyclopropanecarboxamide]	23		
C[C@@H](NC(=O)[C@H]1C[C@@H]1c1ccc(C(C)(C)C)c(F)c1)c1ccc(NS(C)(=O)=O)c(CO)c1 [Example 36, 2-[4-tert-Butyl-3-fluorophenyl]-N-((1R)-1-{3-(hydroxymethyl)-4-[(methylsulfonyl)amino]phenyl}ethyl)cyclopropanecarboxamide]		0.019	
C[C@@H](NC(=O)C1CC1c1ccc(C(C)(C)C)nc1)c1ccc(NS(C)(=O)=O)c(F)c1 (stereo partly drawn) [Example 52, 2-[6-tert-Butylpyridin-3-yl]-N-((1R)-1-{3-fluoro-4-[(methylsulfonyl)amino]phenyl}ethyl)cyclopropanecarboxamide]		1.15	
Cc1cc([C@@H](C)NC(=O)C2CC2c2ccc(C(C)(C)C)cc2-c2ccncc2)ccc1NS(C)(=O)=O (stereo partly drawn) [Example 65, 2-[4-tert-Butyl-2-pyridin-4-ylphenyl]-N-((1R)-1-{3-methyl-4-[(methylsulfonyl)amino]phenyl}ethyl)cyclopropanecarboxamide]		1.04	
Cc1cc([C@@H](C)NC(=O)C2CC2(C)c2cc(F)c(C(C)(C)C)c(F)c2)c(F)cc1NS(C)(=O)=O (stereo partly drawn) [Example 78, 2-(4-tert-Butyl-3,5-difluorophenyl)-N-((1R)-1-{2-fluoro-5-methyl-4-[(methylsulfonyl)amino]phenyl}ethyl)-2-methylcyclopropanecarboxamide]		< 0.003	
COCC(C)(C)c1ccc(C2(C)CC2C(=O)N[C@H](C)c2ccc(NS(C)(=O)=O)c(C)c2)cc1F (stereo partly drawn) [Example 85, 2-{4-[1,1-Dimethyl-2-(methyloxy)ethyl]-3-fluorophenyl}-2-methyl-N-((1R)-1-{3-methyl-4-[(methylsulfonyl)amino]phenyl}ethyl)cyclopropanecarboxamide]		0.0527	
C[C@@H](NC(=O)[C@H]1C[C@]1(C)c1ccc(C(F)(F)F)cc1)c1ccc(NS(C)(=O)=O)c(CCO)c1 [Example 86, (1S,2S)-N-((1R)-1-{3-(2-Hydroxyethyl)-4-[(methylsulfonyl)amino]phenyl}ethyl)-2-methyl-2-[4-(trifluoromethyl)phenyl]cyclopropanecarboxamide]		0.0048	
CCc1cc([C@@H](CC)NC(=O)[C@H]2C[C@]2(C)c2ccc(C(F)(F)F)cc2)ccc1NS(C)(=O)=O [Example 87, (1S,2S)-N-((1R)-1-{3-ethyl-4-[(methylsulfonyl)amino]phenyl}propyl)-2-methyl-2-[4-(trifluoromethyl)phenyl]cyclopropanecarboxamide]		0.0199	
CCC1(c2ccc(C(F)(F)F)cc2)CC1C(=O)N[C@H](C)c1ccc(NS(C)(=O)=O)c(C)c1 (stereo partly drawn) [Example 88, 2-Ethyl-N-((1R)-1-{3-methyl-4-[(methylsulfonyl)amino]phenyl}ethyl)-2-[4-(trifluoromethyl)phenyl]cyclopropanecarboxamide]		< 0.003	
CCC1(c2ccc(C(F)(F)F)cc2)CC1C(=O)N[C@H](C)c1ccc(NS(C)(=O)=O)c(F)c1 (stereo partly drawn) [Example 89, 2-Ethyl-N-((1R)-1-{3-fluoro-4-[(methylsulfonyl)amino]phenyl}ethyl)-2-[4-(trifluoromethyl)phenyl]cyclopropanecarboxamide]		< 0.003	
CC[C@@H](NC(=O)[C@H]1C[C@]1(C)c1cc(F)c(C(C)(C)C)c(F)c1)c1ccc(NS(C)(=O)=O)cc1 [Example 90, 2-(4-tert-Butyl-3,5-difluorophenyl)-2-methyl-N-((1R)-1-{4-[(methylsulfonyl)amino]phenyl}propyl)cyclopropanecarboxamide]		0.0863	
CC[C@@H](NC(=O)[C@H]1C[C@]1(C)c1cc(F)c(C(C)(C)C)c(F)c1)c1ccc(NS(C)(=O)=O)c(C)c1 [Example 91, 2-(4-tert-butyl-3,5-difluorophenyl)-2-methyl-N-((1R)-1-{3-methyl-4-[(methylsulfonyl)amino]phenyl}propyl)cyclopropanecarboxamide]		< 0.003	
